Data taken from the supplement of paper PMC4862054.

Legend:
Conditions in all cases: incubation time: 72 h
[1] = system: CAL-85-1; assay: normalised viability (% of control), CellTiter-Blue; higher = more viable cells (about 100 = DMSO control)
Description: (§1)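 DSRT, CellTiter-Blue viability, 72 h incubation. Signal is normalised to DMSO and benzethonium chloride controls. Value is the normalised response at dose 7.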

[2] = system: MDA-MB-453; assay: as above
Description: as §1

[3] = system: HDQ-P1; assay: as above
Description: as §1

[4] = system: DU-4475; assay: as above
Description: as §1

[5] = system: CAL-148; assay: as above
Description: as §1

[6] = system: CAL-51; assay: as above
Description: as §1

[7] = system: MDA-MB-231; assay: normalised response (% of control), CellTiter-Glo; higher = more viable cells (100 = DMSO, 0 = benzethonium chloride kill control)
Description: (§2)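 DSRT, 72 h incubation, CellTox Green / CellTiter-Glo readout. Signal is normalised to DMSO and benzethonium chloride controls. Value is the normalised response at the highest dose.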

[8] = system: MDA-MB-468; assay: as above
Description: as §2

[9] = system: HCC1143; assay: as above
Description: as §2

[10] = system: CAL-85-1; assay: as above
Description: as §2

[11] = system: MDA-MB-453; assay: as above
Description: as §2

[12] = system: MFM-223; assay: as above
Description: as §2

[13] = system: HCC1599; assay: as above
Description: as §2

[14] = system: Hs578T; assay: as above
Description: as §2

[15] = system: BT-549; assay: as above
Description: as §2

[16] = system: HDQ-P1; assay: as above
Description: as §2

[17] = system: BT-474; assay: as above
Description: as §2

[18] = system: SK-BR-3; assay: as above
Description: as §2

[19] = system: DU-4475; assay: as above
Description: as §2

[20] = system: MDA-MB-436; assay: as above
Description: as §2

[21] = system: CAL-120; assay: as above
Description: as §2

[22] = system: CAL-148; assay: as above
Description: as §2

[23] = system: HCC1937; assay: as above
Description: as §2

[24] = system: MCF-10A; assay: as above
Description: as §2

[25] = system: CAL-51; assay: as above
Description: as §2

[26] = system: MDA-MB-231; assay: normalised response (% of control), CellTox Green; higher = less cell death (100 = DMSO, 0 = benzethonium chloride kill control)
Outline: (§3)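 Plates were normalised with 0.1 % DMSO as 100 and a positive kill control as 0. Breast cancer cell lines in 20 µl suspension had been seeded into 384-well plates with compound at 5 concentrations in 10-fold steps over a compound-specific 10,000-fold range, incubated 72 h, and read for CellTox Green fluorescence (485/520 nm) followed by CellTiter-Glo luminescence. Each value is the normalised signal at a single concentration.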

[27] = system: MDA-MB-468; assay: as above
Outline: as §3

[28] = system: HCC1143; assay: as above
Outline: as §3

[29] = system: CAL-85-1; assay: as above
Outline: as §3

[30] = system: MDA-MB-453; assay: as above
Outline: as §3

[31] = system: MFM-223; assay: as above
Outline: as §3

[32] = system: HCC1599; assay: as above
Outline: as §3

[33] = system: Hs578T; assay: as above
Outline: as §3

[34] = system: BT-549; assay: as above
Outline: as §3

[35] = system: HDQ-P1; assay: as above
Outline: as §3

[36] = system: BT-474; assay: as above
Outline: as §3

[37] = system: DU-4475; assay: as above
Outline: as §3

[38] = system: MDA-MB-436; assay: as above
Outline: as §3

[39] = system: CAL-120; assay: as above
Outline: as §3

[40] = system: CAL-148; assay: as above
Outline: as §3

[41] = system: HCC1937; assay: as above
Outline: as §3

[42] = system: MCF-10A; assay: as above
Outline: as §3

[43] = system: CAL-51; assay: as above
Outline: as §3

CC[C@H](CO)Nc1nc(NCc2ccccc2)c2ncn(C(C)C)c2n1 [Roscovitine] (1000 nM)
normalised viability [1]: 87.8% | normalised viability [2]: 96.2% | normalised viability [3]: 104% | normalised viability [4]: 101% | normalised viability [5]: 92.1% | normalised viability [6]: 105%

CN(Cc1cnc2nc(N)nc(N)c2n1)c1ccc(C(=O)N[C@@H](CCC(=O)O)C(=O)O)cc1 [Methotrexate] (1000 nM)
normalised viability [1]: 57.4% | normalised viability [2]: 84.2% | normalised viability [3]: 77.6% | normalised viability [4]: 110% | normalised viability [5]: 67.8% | normalised viability [6]: 42.5%

C=CCN(/C=C1/C(=O)O[C@H](COC)[C@@]2(C)C1=C(O)C(=O)C1=C2[C@H](OC(C)=O)C[C@]2(C)C(=O)CC[C@@H]12)CC=C [PX-866] (1000 nM)
normalised viability [1]: 95% | normalised viability [2]: 101% | normalised viability [3]: 86.3% | normalised viability [4]: 102% | normalised viability [5]: 99.4% | normalised viability [6]: 112%

O=[N+]([O-])c1ccc2c(c1)S(=O)(=O)C=C2 [Stattic] (50000 nM)
normalised response [7]: -0.2% | normalised response [8]: 0.18% | normalised response [9]: 0.27% | normalised response [10]: -0.24% | normalised response [11]: 0.25% | normalised response [12]: 0.11% | normalised response [13]: 0.17% | normalised response [14]: 0.3% | normalised response [15]: -0.12% | normalised response [16]: 0.11% | normalised response [17]: 0.34% | normalised response [18]: 0.32% | normalised response [19]: 0.04% | normalised response [20]: -0.02% | normalised response [21]: -0.12% | normalised response [22]: 0.45% | normalised response [23]: 0.16% | normalised response [24]: 0.13% | normalised response [25]: 0.17% | normalised response [26]: -17.4% | normalised response [27]: -81.1% | normalised response [28]: -42.8% | normalised response [29]: -51.7% | normalised response [30]: 17.2% | normalised response [31]: 30.1% | normalised response [32]: 65% | normalised response [33]: -12.9% | normalised response [34]: -34.2% | normalised response [35]: 27.2% | normalised response [36]: 8.89% | normalised response [37]: 82.3% | normalised response [38]: -15.2% | normalised response [39]: 27.8% | normalised response [40]: 25.6% | normalised response [41]: -18.2% | normalised response [42]: -24.7% | normalised response [43]: 34.1%

CC(C)n1cnc2c(NCCc3ccc(O)cc3)nc(-c3csc4ccccc34)nc21 [StemRegenin 1] (10000 nM)
normalised response [7]: 85.3% | normalised response [8]: 47.5% | normalised response [9]: 93.6% | normalised response [10]: 78.2% | normalised response [11]: 76.1% | normalised response [12]: 59.2% | normalised response [13]: 61.6% | normalised response [14]: 76.3% | normalised response [15]: 76.4% | normalised response [16]: 76.9% | normalised response [17]: 71.4% | normalised response [18]: 68.3% | normalised response [19]: 89.3% | normalised response [20]: 74% | normalised response [21]: 89.2% | normalised response [22]: 102% | normalised response [23]: 58.9% | normalised response [24]: 97.7% | normalised response [25]: 107% | normalised response [26]: 100% | normalised response [27]: 130% | normalised response [28]: 70.8% | normalised response [29]: 78.5% | normalised response [30]: 87.5% | normalised response [31]: 28.5% | normalised response [32]: 102% | normalised response [33]: -20% | normalised response [34]: 94.6% | normalised response [35]: 84.8% | normalised response [36]: 85.5% | normalised response [37]: 98.1% | normalised response [38]: 103% | normalised response [39]: 103% | normalised response [40]: 104% | normalised response [41]: 91.1% | normalised response [42]: 118% | normalised response [43]: 122%
